Earlier results as cited in USRE38623E1, “Stabilization of ascorbic acid, ascorbic acid derivatives and/or extracts containing ascorbic acid for topical use” (Topix Pharmaceuticals, Inc., priority 1996, dated 2004).
Like-named read-outs stand apart in the source and are kept apart here.

potency after storage (Darr '043 FIG. 1, after seven weeks, starting from 100 percent, L-ascorbic acid concentration of 1 percent): 70%
drop in potency (Darr '043 FIG. 1, seven weeks at room temperature, L-ascorbic concentrations of 3, 5 and 10 percent): less than 10%
drop in potency (Darr '043 FIG. 1, seven weeks, L-ascorbic acid concentration of 1 percent): approximately 30%
lost potency (Darr '043 FIG. 2, all four samples, eight weeks at room temperature, stored in the dark): ≥ 10%
SMILES: O=C1O[C@H]([C@@H](O)CO)C(O)=C1O [L-ascorbic acid]
